Results as given in US20140187784A1, “RADIOACTIVE QUINOLINONE DERIVATIVE AND PHARMACEUTICAL DRUG COMPRISING THE SAME” (Nihon Medi-Physics Co., Ltd., priority 2012, published 2014).

What was measured:
[1] = Pharmacokinetic and distribution experiment (radioactivity in blood and excised organs after tail vein injection); assay type: in vivo; conditions: ddy mice; for Adrenal gland/Blood ratio / Adrenal gland/Kidney ratio / Adrenal gland/Liver ratio / Radioactivity Distribution, Adrenal gland / Radioactivity Distribution, Blood / Radioactivity Distribution, Heart / Radioactivity Distribution, Kidney / Radioactivity Distribution, Large intestine / Radioactivity Distribution, Liver / Radioactivity Distribution, Lung / Radioactivity Distribution, Pancreas / Radioactivity Distribution, Small intestine / Radioactivity Distribution, Spleen / Radioactivity Distribution, Stomach / Radioactivity Distribution, Thyroid: tail vein injection, 18.5 kBq (0.5 μCi)
In short: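 [^125I]PAY15 or PAY21 at 18.5 kBq (0.5 μCi), or [^18F]PAY27 or PAY54 at 14.8 kBq […], in saline given i.v. by tail vein to 6-week-old ddy mice (n=5). Blood and weighed organs (thyroid for 125I, thigh bone for 18F) counted for radioactivity at 5–120 min.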

[2] = Stability evaluation in plasma (HPLC, RI detector); assay type: in vitro ADME; conditions: CD-1 mouse plasma, 37° C., incubation for 120 minutes
Experimental: The stability of [^125I]PAY21 in plasma was evaluated by the following procedures: Blood was collected from the heart of each CD-1 mouse. Plasma was separated by centrifugation and passed through Cosmonice filter (diameter: 4 mm, pore size: 0.45 μm, Nacalai Tesque, Inc.). 350 μL of the plasma thus filtered was incubated at 37° C. for 15 minutes. Then, 30 μL of a saline solution of [^125I]PAY21 (18.5 kBq (0.5 μCi)) was added thereto. After incubation for 120 minutes, a 100 μL aliquot of the mixture was separated and added to methanol (500 μL) under ice cooling. The mixture was further centrifuged, and the supernatant (400 μL) was analyzed by HPLC. The HPLC conditions were the same as those shown in Example 6.

[3] = Pharmacokinetic and distribution experiment using CD-1 (ICR) mice instead of ddy mice; assay type: in vivo; conditions: similar operation using CD-1 (ICR) mice instead of ddy mice

With `O=C1CCc2cc(-c3cncc([125I])c3)cc3c2N1CC3` [[^125I]PAY21, 8-(5-[^125I]iodopyridin-3-yl)-1,2,5,6-tetrahydro-4H-pyrrolo[3,2,1-ij]quinolin-4-one] the “radioactivity accumulation in the adrenal gland compared with blood and periadrenal tissues” value ([1]; at an early stage after administration) was “high radioactivity accumulation”, the “Adrenal gland/Blood ratio” value ([1]; 5 min) was 1.71 ± 0.08 and the “Adrenal gland/Kidney ratio” value ([1]; 5 min) was 1.52 ± 0.19. For the same compound, the “Adrenal gland/Liver ratio” value ([1]; 5 min) was 1.13 ± 0.14, the “Radioactivity Distribution, Adrenal gland” value ([1]; 5 min) was 9.7 ± 1.4 % dose/g and the “Radioactivity Distribution, Blood” value ([1]; 5 min) was 5.7 ± 0.8 % dose/g. The “Radioactivity Distribution, Heart” value ([1]; 5 min) was 3.6 ± 0.4 % dose/g, the “Radioactivity Distribution, Kidney” value ([1]; 5 min) was 6.4 ± 0.4 % dose/g and the “Radioactivity Distribution, Large intestine” value ([1]; 5 min) was 2.3 ± 0.4 % dose/g. The “Radioactivity Distribution, Liver” value ([1]; 5 min) was 8.6 ± 1.1 % dose/g, the “Radioactivity Distribution, Lung” value ([1]; 5 min) was 5.6 ± 0.7 % dose/g and the “Radioactivity Distribution, Pancreas” value ([1]; 5 min) was 4.0 ± 0.5 % dose/g. The “Radioactivity Distribution, Small intestine” value ([1]; 5 min) was 6.0 ± 1.0 % dose/g, the “Radioactivity Distribution, Spleen” value ([1]; 5 min) was 3.9 ± 0.4 % dose/g and the “Radioactivity Distribution, Stomach” value ([1]; 5 min) was 10.1 ± 1.6 % dose/g. The “Radioactivity Distribution, Thyroid” value ([1]; 5 min) was 114.1 ± 22.4 % dose/g, the “Adrenal gland/Blood ratio” value ([1]; 15 min) was 0.75 ± 0.17 and the “Adrenal gland/Kidney ratio” value ([1]; 15 min) was 0.90 ± 0.24. For the same compound, the “Adrenal gland/Liver ratio” value ([1]; 15 min) was 1.12 ± 0.36, the “Radioactivity Distribution, Adrenal gland” value ([1]; 15 min) was 3.6 ± 1.0 % dose/g and the “Radioactivity Distribution, Blood” value ([1]; 15 min) was 4.7 ± 0.4 % dose/g. The “Radioactivity Distribution, Heart” value ([1]; 15 min) was 2.1 ± 0.3 % dose/g, the “Radioactivity Distribution, Kidney” value ([1]; 15 min) was 4.0 ± 0.6 % dose/g and the “Radioactivity Distribution, Large intestine” value ([1]; 15 min) was 2.2 ± 0.1 % dose/g. For the same compound, the “Radioactivity Distribution, Liver” value ([1]; 15 min) was 3.2 ± 0.4 % dose/g, the “Radioactivity Distribution, Lung” value ([1]; 15 min) was 4.1 ± 0.3 % dose/g and the “Radioactivity Distribution, Pancreas” value ([1]; 15 min) was 2.6 ± 0.3 % dose/g. The “Radioactivity Distribution, Small intestine” value ([1]; 15 min) was 8.1 ± 2.2 % dose/g, the “Radioactivity Distribution, Spleen” value ([1]; 15 min) was 3.0 ± 0.4 % dose/g and the “Radioactivity Distribution, Stomach” value ([1]; 15 min) was 28.4 ± 3.3 % dose/g. The “Radioactivity Distribution, Thyroid” value ([1]; 15 min) was 332.2 ± 43.1 % dose/g, the “Adrenal gland/Blood ratio” value ([1]; 30 min) was 0.76 ± 0.14 and the “Adrenal gland/Kidney ratio” value ([1]; 30 min) was 0.82 ± 0.10. The “Adrenal gland/Liver ratio” value ([1]; 30 min) was 1.26 ± 0.20, the “Radioactivity Distribution, Adrenal gland” value ([1]; 30 min) was 2.8 ± 0.3 % dose/g and the “Radioactivity Distribution, Blood” value ([1]; 30 min) was 3.7 ± 0.4 % dose/g. For the same compound, the “Radioactivity Distribution, Heart” value ([1]; 30 min) was 1.5 ± 0.1 % dose/g, the “Radioactivity Distribution, Kidney” value ([1]; 30 min) was 3.4 ± 0.4 % dose/g and the “Radioactivity Distribution, Large intestine” value ([1]; 30 min) was 2.1 ± 0.2 % dose/g. The “Radioactivity Distribution, Liver” value ([1]; 30 min) was 2.2 ± 0.2 % dose/g, the “Radioactivity Distribution, Lung” value ([1]; 30 min) was 3.4 ± 0.3 % dose/g and the “Radioactivity Distribution, Pancreas” value ([1]; 30 min) was 2.4 ± 0.5 % dose/g. For the same compound, the “Radioactivity Distribution, Small intestine” value ([1]; 30 min) was 10.3 ± 2.8 % dose/g, the “Radioactivity Distribution, Spleen” value ([1]; 30 min) was 2.5 ± 0.6 % dose/g and the “Radioactivity Distribution, Stomach” value ([1]; 30 min) was 40.7 ± 3.5 % dose/g. For the same compound, the “Radioactivity Distribution, Thyroid” value ([1]; 30 min) was 1570.0 ± 165.0 % dose/g, the “Adrenal gland/Blood ratio” value ([1]; 60 min) was 0.54 ± 0.17 and the “Adrenal gland/Kidney ratio” value ([1]; 60 min) was 0.65 ± 0.21. For the same compound, the “Adrenal gland/Liver ratio” value ([1]; 60 min) was 1.15 ± 0.38, the “Radioactivity Distribution, Adrenal gland” value ([1]; 60 min) was 1.9 ± 0.8 % dose/g and the “Radioactivity Distribution, Blood” value ([1]; 60 min) was 3.4 ± 0.6 % dose/g. The “Radioactivity Distribution, Heart” value ([1]; 60 min) was 1.3 ± 0.2 % dose/g, the “Radioactivity Distribution, Kidney” value ([1]; 60 min) was 2.9 ± 0.6 % dose/g and the “Radioactivity Distribution, Large intestine” value ([1]; 60 min) was 2.0 ± 0.4 % dose/g. For the same compound, the “Radioactivity Distribution, Liver” value ([1]; 60 min) was 1.6 ± 0.3 % dose/g, the “Radioactivity Distribution, Lung” value ([1]; 60 min) was 3.1 ± 0.6 % dose/g and the “Radioactivity Distribution, Pancreas” value ([1]; 60 min) was 1.7 ± 0.3 % dose/g. For the same compound, the “Radioactivity Distribution, Small intestine” value ([1]; 60 min) was 10.9 ± 2.9 % dose/g, the “Radioactivity Distribution, Spleen” value ([1]; 60 min) was 1.9 ± 0.4 % dose/g and the “Radioactivity Distribution, Stomach” value ([1]; 60 min) was 39.4 ± 9.1 % dose/g. For the same compound, the “Radioactivity Distribution, Thyroid” value ([1]; 60 min) was 1318.7 ± 800.8 % dose/g, the “Adrenal gland/Blood ratio” value ([1]; 120 min) was 0.71 ± 0.32 and the “Adrenal gland/Kidney ratio” value ([1]; 120 min) was 0.81 ± 0.44. The “Adrenal gland/Liver ratio” value ([1]; 120 min) was 1.33 ± 0.64, the “Radioactivity Distribution, Adrenal gland” value ([1]; 120 min) was 1.8 ± 0.7 % dose/g and the “Radioactivity Distribution, Blood” value ([1]; 120 min) was 2.6 ± 0.3 % dose/g. For the same compound, the “Radioactivity Distribution, Heart” value ([1]; 120 min) was 1.0 ± 0.2 % dose/g, the “Radioactivity Distribution, Kidney” value ([1]; 120 min) was 2.4 ± 0.6 % dose/g and the “Radioactivity Distribution, Large intestine” value ([1]; 120 min) was 10.0 ± 4.8 % dose/g. For the same compound, the “Radioactivity Distribution, Liver” value ([1]; 120 min) was 1.4 ± 0.2 % dose/g, the “Radioactivity Distribution, Lung” value ([1]; 120 min) was 2.6 ± 0.7 % dose/g and the “Radioactivity Distribution, Pancreas” value ([1]; 120 min) was 1.6 ± 0.1 % dose/g. For the same compound, the “Radioactivity Distribution, Small intestine” value ([1]; 120 min) was 4.8 ± 1.3 % dose/g, the “Radioactivity Distribution, Spleen” value ([1]; 120 min) was 1.7 ± 0.1 % dose/g and the “Radioactivity Distribution, Stomach” value ([1]; 120 min) was 38.6 ± 6.5 % dose/g. The “Radioactivity Distribution, Thyroid” value ([1]; 120 min) was 4664.0 ± 1419.1 % dose/g, the “peak area of intact compound after incubation in plasma” value [2] was “approximately 60%” and the “radioactivity distribution in CD-1 (ICR) mice compared with ddy mice” value [3] was “no difference between the species”.
